Laboratory results reported in patent US20050009913A1, “Method for inactivating bacteria and leukocytes in thrombocyte suspensions” (priority 2001, published 2005).

What was measured:
S. epidermidis = assay: Photoinactivation of S. epidermidis in TC (colony forming assay); assay type: cell-based, Staphylococcus epidermidis; details: for Bacteria titre after light, Exp. 1 / Bacteria titre after light, Exp. 2: compound 2 mM, light energy input 3000 kJ/m^2
Experimental: (§1) In the experiments described, TC was used which had been obtained from the buffy coats of donor blood and which was suspended in plasma or in a conventional storage medium (T-sol) with approximately 40% plasma. A system fitted with xenon lamps and in which the emitted UV fraction was masked out by a window glass filter was used for the exposure. Staphylococcus (S.) epidermidis was generally used as the test bacterium. Bacteria titres were determined using a colony forming assay. These are given in “colony forming units per ml” (CFU/ml).
(§2) In the experiments on the inactivation of bacteria TC aliquots of respectively 60 ml located in PVC storage bags having a nominal volume of 500 ml were treated. After adding delta-Ala or the methyl ester of delta-Ala (see Table 1) the samples were pre-incubated for one hour at room temperature in the thrombocyte rotator and then exposed to light. In the experiments on the inactivation of leukocytes the samples were pre-incubated overnight (i.e., for approximately 16-20 h) or for 4 hours. The light energy deposited in the samples is given in kilojoules per m^2 (kJ/m^2). 3000 kJ/m^2 corresponds to an exposure time of about one hour. Each experiment was carried out at least twice.
In order to determine the quantity of light sufficient to largely inactivate S. epidermidis, i.e., by at least 2 log10 grades, the following experiments were carried out: 1000 to 1500 CFU/ml S. epidermidis was added to TC, either in storage medium having a plasma content of approximately 40% or in plasma; delta-Ala was then added in a concentration of 0.25 mM (plasma-reduced TC) or 1 mM (TC with approximately 100% plasma). After pre-incubating for one hour at room temperature, the samples were exposed to different amounts of light. The results are plotted in FIGS. 3 and 4.

Pseudomonas aeroginosa = assay: Photoinactivation of Pseudomonas aeroginosa in TC (colony forming assay); assay type: cell-based; details: 1 mM delta-Ala
Experimental: as §1, §2

Staphylococcus aureus = assay: Photoinactivation of Staphylococcus aureus in TC (colony forming assay); assay type: cell-based; details: 1 mM delta-Ala
Experimental: as §1, §2

Yersinia enterocolitica = assay: Photoinactivation of Yersinia enterocolitica in TC (colony forming assay); assay type: cell-based; details: 1 mM delta-Ala
Experimental: as §1, §2

Escherichia coli = assay: Photoinactivation of Escherichia coli in TC (colony forming assay); assay type: cell-based; details: 1 mM delta-Ala
Experimental: as §1, §2

Serratia marescens = assay: Photoinactivation of Serratia marescens in TC (colony forming assay); assay type: cell-based; details: 1 mM delta-Ala
Experimental: as §1, §2

Enterobacter cloacae = assay: Photoinactivation of Enterobacter cloacae in TC (colony forming assay); assay type: cell-based; details: 1 mM delta-Ala
Experimental: as §1, §2

T lymphocytes = assay: Photoinactivation of T lymphocytes in TC (Con A proliferation assay, BRDU incorporation); assay type: cell-based; details: pre-incubation approx. 16 h, light energy input 2000 kJ/m^2 (FIG. 5)
Experimental: as §2

thrombocytes = assay: Functional in-vitro properties of TC after delta-Ala and exposure to light (hypotonic shock reaction, collagen-induced aggregation); assay type: cell-based; details: after treatment with delta-Ala and subsequent exposure to light
[1] = after exposure, 1500 kJ/m^2, average of two experiments
[2] = before exposure, average of two experiments

In the case of NCC(=O)CCC(=O)O [Delta-Ala, 6-aminolevulinic acid], the “Bacteria titre after light, Exp. 1” value (S. epidermidis; TC in 100% plasma) was 5 CFU/ml, the “Bacteria titre after light, Exp. 2” value (S. epidermidis; TC in 100% plasma) was 3.5 CFU/ml and the “Bacteria titre after exposure” value (S. epidermidis; TC, 1 mM delta-Ala, after exposure, 1500 kJ/m^2, average of two experiments) was 2 CFU/ml. For the same compound, the “Bacteria titre before exposure” value (S. epidermidis; TC, 1 mM delta-Ala, before exposure, average of two experiments) was 2440 CFU/ml, the “delta-Ala concentration sufficient for inactivation” value (S. epidermidis; plasma-reduced TC, light energy input 3000 kJ/m^2 (FIG. 2)) was at most 0.1 mM and the “Light energy to be irradiated for extensive inactivation of the bacteria” value (S. epidermidis; thrombocytes suspended in 100% plasma, 1 mM delta-Ala, pre-incubation one hour (FIG. 4)) was “approximately 3000 kJ/m^2”. For the same compound, the “Bacteria titre after exposure” value (Pseudomonas aeroginosa; [1]) was 1 CFU/ml, the “Bacteria titre before exposure” value (Pseudomonas aeroginosa; [2]) was 700 CFU/ml and the “Reduction of infectious titre” value (Staphylococcus aureus; 1500 kJ/m^2) was about 97%. For the same compound, the “Bacteria titre after exposure” value (Staphylococcus aureus; [1]) was 51 CFU/ml, the “Bacteria titre before exposure” value (Staphylococcus aureus; [2]) was 2000 CFU/ml and the “Bacteria titre after exposure” value (Yersinia enterocolitica; [1]) was 1 CFU/ml. For the same compound, the “Bacteria titre before exposure” value (Yersinia enterocolitica; [2]) was 4650 CFU/ml, the “Bacteria titre after exposure” value (Escherichia coli; [1]) was 3 CFU/ml and the “Bacteria titre before exposure” value (Escherichia coli; [2]) was 11300 CFU/ml. The “Bacteria titre after exposure” value (Serratia marescens; [1]) was 1 CFU/ml, the “Bacteria titre before exposure” value (Serratia marescens; [2]) was 2500 CFU/ml and the “Reduction of infectious titre” value (Enterobacter cloacae; 1500 kJ/m^2) was “approximately 95%”. The “Bacteria titre after exposure” value (Enterobacter cloacae; [1]) was 1280 CFU/ml, the “Bacteria titre before exposure” value (Enterobacter cloacae; [2]) was 24500 CFU/ml and the “Required concentration of delta-Ala for photoinactivation of T lymphocytes” value (T lymphocytes) was “higher than 1 mM”. For the same compound, the “Functional in-vitro properties of TC and other thrombocyte parameters after treatment” value (thrombocytes) was “had not changed”.

In the case of COC(=O)CCC(=O)CN [Methyl-Ala, delta-Ala methyl ester], the “Efficacy of inactivation of S. epidermidis compared with delta-Ala” value (S. epidermidis; TC in 100% plasma, 2 mM, 3000 kJ/m^2 (Table 1)) was “the same efficacy”, the “Bacteria titre after light, Exp. 1” value (S. epidermidis; TC in 100% plasma) was 1.5 CFU/ml and the “Bacteria titre after light, Exp. 2” value (S. epidermidis; TC in 100% plasma) was 4 CFU/ml.
